Data published in PubChem BioAssay (NCI).
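In this assay, cells in 96-well plates receive the compound at five concentrations for 48 hours. Endpoints are linearly interpolated between the surrounding concentrations. Here, GI50 denotes the concentration required for 50% inhibition of growth. Definition used: TGI = concentration required for complete inhibition of growth.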

Experiments:
Experiment in all cases: NCI-60 cell line screen, 48 h
HOP-92 NSCLC = system: HOP-92 NSCLC
UACC-257 melanoma = system: UACC-257 melanoma
EKVX NSCLC = system: EKVX NSCLC
A498 renal = system: A498 renal
OVCAR-8 ovarian = system: OVCAR-8 ovarian
MALME-3M melanoma = system: MALME-3M melanoma
SF-295 CNS = system: SF-295 CNS
MOLT-4 leukemia = system: MOLT-4 leukemia
LOX IMVI melanoma = system: LOX IMVI melanoma
UO-31 renal = system: UO-31 renal

Row | Structure (SMILES) | GI50 (HOP-92 NSCLC) [µM] | TGI (HOP-92 NSCLC) [µM] | GI50 (UACC-257 melanoma) [µM] | TGI (UACC-257 melanoma) [µM] | GI50 (EKVX NSCLC) [µM] | TGI (EKVX NSCLC) [µM] | GI50 (A498 renal) [µM] | TGI (A498 renal) [µM] | GI50 (OVCAR-8 ovarian) [µM] | TGI (OVCAR-8 ovarian) [µM] | GI50 (MALME-3M melanoma) [µM] | TGI (MALME-3M melanoma) [µM] | GI50 (SF-295 CNS) [µM] | TGI (SF-295 CNS) [µM] | GI50 (MOLT-4 leukemia) [µM] | TGI (MOLT-4 leukemia) [µM] | GI50 (LOX IMVI melanoma) [µM] | TGI (LOX IMVI melanoma) [µM] | GI50 (UO-31 renal) [µM] | TGI (UO-31 renal) [µM]
1 | CC1(C)CC([P+](c2ccccc2)(c2ccccc2)c2ccccc2)=NN1 | 3.75 | 71.9 | 2.82 | > 100 | 2.42 | > 100 | 4.24 | 35.7 | 5.92 | > 100 | 3.43 | > 100 | 8.68 | 43.9 | 6.03 | > 100 | 3.74 | > 100 | > 100 | > 100
2 | CC(C)C(=O)[O-].CC(C)C(=O)[O-].N.N.N.N.[Co+3].[O-][Cl+3]([O-])([O-])[O-] | > 100 | > 100 | > 100 | > 100 | > 100 | > 100 | > 100 | > 100 | > 100 | > 100 | > 100 | > 100 | > 100 | > 100 | > 100 | > 100 | > 100 | > 100 | > 100 | > 100
3 | NC(=O)c1ccccc1NC(=O)c1ccccc1Cl | 60.7 | > 100 | > 100 | > 100 | > 100 | > 100 | 56.2 | > 100 | > 100 | > 100 | > 100 | > 100 | > 100 | > 100 | > 100 | > 100 | > 100 | > 100 | > 100 | > 100
4 | COc1ccc(-c2cc(-c3cccc(NS(C)(=O)=O)c3)nc(N)c2C#N)cc1 | 3.38 | 48.7 |  |  | 0.525 | > 81.6 | 0.116 | 54 | 0.222 | 34.6 | 0.0417 | 21.8 | 0.0497 | 2.87 | 0.235 | > 100 | 0.0743 | > 37.5 | 0.124 | > 43.7
5 | Cc1cc(C)c(S(=O)(=O)N(CCc2cccc(Br)c2)Cc2ccc(-c3cccc(S(C)(=O)=O)c3)cc2)c(C)c1 | > 100 | > 100 |  |  | > 100 | > 100 | > 100 | > 100 | > 100 | > 100 | > 100 | > 100 | > 100 | > 100 | > 100 | > 100 | > 100 | > 100 | > 100 | > 100
6 | N#C/C(=C\c1c(-c2ccccc2)[nH]c2ccccc12)C(=O)c1ccccc1 | 4.51 | 28.7 | 10.9 | > 100 | 9.97 | > 100 | 15.3 | > 100 | 21.7 | > 100 | 12.3 | > 100 | 3 | > 100 |  |  | 7.4 | > 100 | 30.5 | > 100
